What was measured:
[1] = test system: iCasp9-ΔCD19-transduced MSCs; assay: In vivo killing of iCasp9 MSCs in SCID mice (luminescence, qPCR)
Procedure: All mouse experiments were performed in accordance with the Baylor College of Medicine animal husbandry guidelines. To assess the persistence of modified MSCs in vivo, a SCID mouse model was used in conjunction with an in vivo imaging system. MSCs were transduced with retroviruses coding for the enhanced green fluorescent protein-firefly luciferase (eGFP-FFLuc) gene alone or together with the iCasp9-ΔCD19 gene. Cells were sorted for eGFP positivity by fluorescence activated cell sorting using a MoFlo flow cytometer (Beckman Coulter, Fullerton, Calif.). Doubly transduced cells were also stained with PE-conjugated anti-CD19 and sorted for PE-positivity. SCID mice (8-10 weeks old) were injected subcutaneously with 5×10^5 MSCs with and without iCasp9-ΔCD19 in opposite flanks. […] For in vivo imaging of MSCs expressing eGFP-FFLuc, mice were injected intraperitoneally with D-luciferin (150 mg/kg) and analyzed using the Xenogen-IVIS Imaging System. Total luminescence (a measurement proportional to the total labeled MSCs deposited) at each time point was calculated by automatically defining regions-of-interest (ROIs) over the MSC implantation sites. These ROIs included all areas with luminescence signals at least 5% above background. Total photon counts were integrated for each ROI and an average value calculated. […]

[2] = test system: differentiated iCasp9-positive MSCs; assay: Apoptosis of differentiated iCasp9 MSCs after CID (TUNEL, cell density); details: adipocytic differentiation; 50 nM CID; 24 hours; from 584

CC[C@H](C(=O)N1CCCC[C@H]1C(=O)O[C@H](CCc1ccc(OC)c(OC)c1)c1cccc(OCC(=O)NCC(CNC(=O)COc2cccc([C@@H](CCc3ccc(OC)c(OC)c3)OC(=O)[C@@H]3CCCCN3C(=O)[C@@H](CC)c3cc(OC)c(OC)c(OC)c3)c2)CN(C)C)c1)c1cc(OC)c(OC)c(OC)c1 [AP20187]
surviving iCasp9-positive cells, % of the original population ([1]; after one week): 0.7%
killing / depletion of iCasp9-positive cells in vivo ([1]; two injections of 50 μg of CID 24 hours apart, qPCR): > 99%
cell density after CID [2]: < 14 cells/mm2

— US20220125837A1, “METHODS FOR CONTROLLED ELIMINATION OF THERAPEUTIC CELLS” (Bellicum Pharmaceuticals, Inc., priority 2014, published 2022)
